Common to all, as to assay: Ray2010 Assay 74
Test [1] addresses Nischarin (Homo sapiens, UniProt Q9Y2I1). The source says: (§1) Table S2 shows raw Ki data for the current study combined with data collected from the literature for the ten additional compounds.
The target in test [2] is Cannabinoid receptor 2 (Homo sapiens, UniProt P34972).
Excerpt: as §1

In test [3] the target is D(1B) dopamine receptor (Homo sapiens, UniProt P21918).
Excerpt: as §1

Test [4] has as its target T1, 5-hydroxytryptamine receptor 3A (Homo sapiens, UniProt P46098).
T1 sequence (P46098 whole entry): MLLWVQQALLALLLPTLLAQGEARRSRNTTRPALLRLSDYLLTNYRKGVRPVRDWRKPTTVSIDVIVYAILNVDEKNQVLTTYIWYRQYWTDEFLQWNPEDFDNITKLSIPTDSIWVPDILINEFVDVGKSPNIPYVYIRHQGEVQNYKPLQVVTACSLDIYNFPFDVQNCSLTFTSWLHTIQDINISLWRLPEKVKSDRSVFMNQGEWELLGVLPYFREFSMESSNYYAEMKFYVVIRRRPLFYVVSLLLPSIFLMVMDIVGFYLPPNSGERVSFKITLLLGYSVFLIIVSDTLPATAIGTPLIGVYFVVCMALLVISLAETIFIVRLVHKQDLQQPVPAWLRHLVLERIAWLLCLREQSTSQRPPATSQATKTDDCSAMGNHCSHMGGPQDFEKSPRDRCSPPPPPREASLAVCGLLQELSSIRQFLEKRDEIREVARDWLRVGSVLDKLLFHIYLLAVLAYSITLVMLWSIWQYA
Excerpt: as §1

The target in test [5] is T2, Alpha-2C adrenergic receptor (Homo sapiens, UniProt P18825).
T2 sequence (P18825 whole entry): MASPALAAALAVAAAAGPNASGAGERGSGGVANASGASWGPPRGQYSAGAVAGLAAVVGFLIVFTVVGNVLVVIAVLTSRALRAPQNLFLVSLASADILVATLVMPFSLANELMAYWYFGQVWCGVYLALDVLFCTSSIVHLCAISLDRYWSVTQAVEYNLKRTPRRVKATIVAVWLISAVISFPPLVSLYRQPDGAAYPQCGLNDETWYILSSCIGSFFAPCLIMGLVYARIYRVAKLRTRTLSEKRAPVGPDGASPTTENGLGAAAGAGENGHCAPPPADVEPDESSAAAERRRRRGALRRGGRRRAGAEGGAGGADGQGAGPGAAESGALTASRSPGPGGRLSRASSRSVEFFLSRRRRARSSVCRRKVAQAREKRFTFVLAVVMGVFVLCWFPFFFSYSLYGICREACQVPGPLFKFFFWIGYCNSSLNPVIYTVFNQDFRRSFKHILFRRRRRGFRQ
Excerpt: as §1

Test [6] has as its target Histamine H3 receptor (Homo sapiens, UniProt Q9Y5N1).
Excerpt: as §1

In test [7] the target is Mu-type opioid receptor (Homo sapiens, UniProt P35372).
Excerpt: as §1

Test [8] concerns the target Sigma non-opioid intracellular receptor 1 (Homo sapiens, UniProt Q99720).
Excerpt: as §1

The target in test [9] is Vasopressin V1a receptor (Homo sapiens, UniProt P37288).
Excerpt: as §1

The target of test [10] is T3, Vasopressin V1b receptor (Homo sapiens, UniProt P47901).
T3 sequence (P47901 whole entry): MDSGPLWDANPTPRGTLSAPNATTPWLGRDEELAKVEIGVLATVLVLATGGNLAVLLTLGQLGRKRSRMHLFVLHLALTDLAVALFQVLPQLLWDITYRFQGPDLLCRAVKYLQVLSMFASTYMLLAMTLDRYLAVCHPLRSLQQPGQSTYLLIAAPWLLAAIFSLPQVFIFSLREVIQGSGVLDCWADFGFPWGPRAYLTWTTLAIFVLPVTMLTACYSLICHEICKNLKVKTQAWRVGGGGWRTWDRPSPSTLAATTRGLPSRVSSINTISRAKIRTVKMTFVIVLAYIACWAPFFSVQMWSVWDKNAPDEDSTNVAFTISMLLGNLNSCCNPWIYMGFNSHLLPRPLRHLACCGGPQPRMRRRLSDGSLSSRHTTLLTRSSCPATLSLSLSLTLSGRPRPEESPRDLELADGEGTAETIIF
Excerpt: as §1

In test [11] the target is T4, Prostaglandin E2 receptor EP3 subtype (Homo sapiens, UniProt P43115).
T4 sequence (P43115 whole entry): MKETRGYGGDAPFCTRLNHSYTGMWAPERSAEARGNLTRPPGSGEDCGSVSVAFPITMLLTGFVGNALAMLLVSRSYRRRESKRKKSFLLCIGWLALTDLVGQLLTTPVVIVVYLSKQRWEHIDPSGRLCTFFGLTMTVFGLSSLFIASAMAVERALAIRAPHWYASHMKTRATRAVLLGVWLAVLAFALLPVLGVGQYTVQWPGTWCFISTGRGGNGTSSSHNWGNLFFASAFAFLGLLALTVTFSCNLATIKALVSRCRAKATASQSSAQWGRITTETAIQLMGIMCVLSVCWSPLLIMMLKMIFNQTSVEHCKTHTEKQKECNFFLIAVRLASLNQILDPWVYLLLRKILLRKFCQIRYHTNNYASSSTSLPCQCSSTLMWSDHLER
Excerpt: as §1

Test [12] has as its target Voltage-dependent calcium channel subunit alpha-2/delta-1 (Homo sapiens, UniProt P54289).
Excerpt: as §1

Chain of Mu-type opioid receptor (P35372 whole entry): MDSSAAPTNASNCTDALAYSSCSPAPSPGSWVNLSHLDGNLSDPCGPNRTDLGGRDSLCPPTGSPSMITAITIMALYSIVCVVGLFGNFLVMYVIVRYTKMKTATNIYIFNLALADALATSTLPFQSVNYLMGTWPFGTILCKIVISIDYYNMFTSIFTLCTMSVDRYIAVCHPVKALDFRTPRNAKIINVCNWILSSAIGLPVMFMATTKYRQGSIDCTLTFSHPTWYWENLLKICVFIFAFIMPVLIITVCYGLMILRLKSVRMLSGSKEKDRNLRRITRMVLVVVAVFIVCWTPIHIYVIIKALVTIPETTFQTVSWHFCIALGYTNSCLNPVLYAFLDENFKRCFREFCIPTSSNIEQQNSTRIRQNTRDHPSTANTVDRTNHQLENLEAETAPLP
Chain of Vasopressin V1a receptor (P37288 whole entry): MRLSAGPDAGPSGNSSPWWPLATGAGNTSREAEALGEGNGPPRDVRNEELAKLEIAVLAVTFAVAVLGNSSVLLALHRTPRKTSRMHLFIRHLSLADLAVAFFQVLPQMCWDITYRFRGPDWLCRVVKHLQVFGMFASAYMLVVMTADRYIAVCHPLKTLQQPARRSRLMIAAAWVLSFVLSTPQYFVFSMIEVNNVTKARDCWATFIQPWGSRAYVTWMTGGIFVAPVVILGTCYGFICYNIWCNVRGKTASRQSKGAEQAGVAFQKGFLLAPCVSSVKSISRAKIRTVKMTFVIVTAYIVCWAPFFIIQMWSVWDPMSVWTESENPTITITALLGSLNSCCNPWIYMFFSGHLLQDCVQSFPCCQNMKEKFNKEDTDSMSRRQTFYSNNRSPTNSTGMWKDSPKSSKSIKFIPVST
Chain of D(1B) dopamine receptor (P21918 whole entry): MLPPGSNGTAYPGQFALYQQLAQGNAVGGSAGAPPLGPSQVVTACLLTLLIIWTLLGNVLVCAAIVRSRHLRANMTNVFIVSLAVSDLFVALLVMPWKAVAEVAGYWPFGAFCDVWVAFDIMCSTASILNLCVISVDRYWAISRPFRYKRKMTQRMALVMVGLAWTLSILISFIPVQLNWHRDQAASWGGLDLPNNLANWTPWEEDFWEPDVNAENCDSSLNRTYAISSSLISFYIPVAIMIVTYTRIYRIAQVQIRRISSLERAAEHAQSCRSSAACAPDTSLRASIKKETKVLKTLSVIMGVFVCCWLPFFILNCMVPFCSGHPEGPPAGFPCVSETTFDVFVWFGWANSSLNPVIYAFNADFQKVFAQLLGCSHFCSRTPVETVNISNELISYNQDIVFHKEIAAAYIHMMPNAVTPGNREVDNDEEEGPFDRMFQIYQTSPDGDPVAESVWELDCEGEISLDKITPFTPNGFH
Chain of Sigma non-opioid intracellular receptor 1 (Q99720 whole entry): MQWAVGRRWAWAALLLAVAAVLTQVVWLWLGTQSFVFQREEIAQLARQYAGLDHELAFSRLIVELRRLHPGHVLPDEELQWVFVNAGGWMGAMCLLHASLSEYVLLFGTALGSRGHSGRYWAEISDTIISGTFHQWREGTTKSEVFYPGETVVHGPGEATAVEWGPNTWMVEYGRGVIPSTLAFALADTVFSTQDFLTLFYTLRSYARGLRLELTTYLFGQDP
Chain of Voltage-dependent calcium channel subunit alpha-2/delta-1 (P54289 25-956 limits assumed): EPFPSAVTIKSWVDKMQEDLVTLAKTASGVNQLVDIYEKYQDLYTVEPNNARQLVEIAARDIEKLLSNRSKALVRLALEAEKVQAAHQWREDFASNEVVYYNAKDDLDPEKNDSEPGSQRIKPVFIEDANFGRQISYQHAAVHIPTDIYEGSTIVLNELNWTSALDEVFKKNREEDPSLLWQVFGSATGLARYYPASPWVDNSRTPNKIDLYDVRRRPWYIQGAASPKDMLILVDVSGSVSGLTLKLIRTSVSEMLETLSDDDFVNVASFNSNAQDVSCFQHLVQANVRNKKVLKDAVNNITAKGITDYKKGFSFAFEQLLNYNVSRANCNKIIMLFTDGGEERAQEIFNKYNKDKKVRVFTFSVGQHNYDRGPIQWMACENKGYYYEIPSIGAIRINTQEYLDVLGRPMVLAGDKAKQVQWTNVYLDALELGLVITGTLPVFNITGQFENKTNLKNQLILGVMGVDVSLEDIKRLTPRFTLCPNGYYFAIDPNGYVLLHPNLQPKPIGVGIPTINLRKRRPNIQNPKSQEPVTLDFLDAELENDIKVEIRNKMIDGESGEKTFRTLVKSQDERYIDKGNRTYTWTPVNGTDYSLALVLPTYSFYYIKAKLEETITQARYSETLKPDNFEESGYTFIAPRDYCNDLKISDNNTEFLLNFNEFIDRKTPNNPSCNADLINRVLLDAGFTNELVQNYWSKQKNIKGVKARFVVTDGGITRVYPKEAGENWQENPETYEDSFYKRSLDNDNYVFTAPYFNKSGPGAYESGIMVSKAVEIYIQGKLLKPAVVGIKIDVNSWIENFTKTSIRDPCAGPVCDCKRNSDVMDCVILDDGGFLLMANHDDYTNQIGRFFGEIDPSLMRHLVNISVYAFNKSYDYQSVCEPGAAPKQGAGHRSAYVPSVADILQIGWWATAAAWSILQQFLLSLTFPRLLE
Chain of Voltage-dependent calcium channel subunit alpha-2/delta-1 (P54289 957-1103 limits assumed): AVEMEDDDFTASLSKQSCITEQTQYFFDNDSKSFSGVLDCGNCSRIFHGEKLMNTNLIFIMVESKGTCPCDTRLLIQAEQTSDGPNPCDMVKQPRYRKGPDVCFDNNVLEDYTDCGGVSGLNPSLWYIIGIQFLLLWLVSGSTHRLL
Chain of Nischarin (Q9Y2I1 whole entry): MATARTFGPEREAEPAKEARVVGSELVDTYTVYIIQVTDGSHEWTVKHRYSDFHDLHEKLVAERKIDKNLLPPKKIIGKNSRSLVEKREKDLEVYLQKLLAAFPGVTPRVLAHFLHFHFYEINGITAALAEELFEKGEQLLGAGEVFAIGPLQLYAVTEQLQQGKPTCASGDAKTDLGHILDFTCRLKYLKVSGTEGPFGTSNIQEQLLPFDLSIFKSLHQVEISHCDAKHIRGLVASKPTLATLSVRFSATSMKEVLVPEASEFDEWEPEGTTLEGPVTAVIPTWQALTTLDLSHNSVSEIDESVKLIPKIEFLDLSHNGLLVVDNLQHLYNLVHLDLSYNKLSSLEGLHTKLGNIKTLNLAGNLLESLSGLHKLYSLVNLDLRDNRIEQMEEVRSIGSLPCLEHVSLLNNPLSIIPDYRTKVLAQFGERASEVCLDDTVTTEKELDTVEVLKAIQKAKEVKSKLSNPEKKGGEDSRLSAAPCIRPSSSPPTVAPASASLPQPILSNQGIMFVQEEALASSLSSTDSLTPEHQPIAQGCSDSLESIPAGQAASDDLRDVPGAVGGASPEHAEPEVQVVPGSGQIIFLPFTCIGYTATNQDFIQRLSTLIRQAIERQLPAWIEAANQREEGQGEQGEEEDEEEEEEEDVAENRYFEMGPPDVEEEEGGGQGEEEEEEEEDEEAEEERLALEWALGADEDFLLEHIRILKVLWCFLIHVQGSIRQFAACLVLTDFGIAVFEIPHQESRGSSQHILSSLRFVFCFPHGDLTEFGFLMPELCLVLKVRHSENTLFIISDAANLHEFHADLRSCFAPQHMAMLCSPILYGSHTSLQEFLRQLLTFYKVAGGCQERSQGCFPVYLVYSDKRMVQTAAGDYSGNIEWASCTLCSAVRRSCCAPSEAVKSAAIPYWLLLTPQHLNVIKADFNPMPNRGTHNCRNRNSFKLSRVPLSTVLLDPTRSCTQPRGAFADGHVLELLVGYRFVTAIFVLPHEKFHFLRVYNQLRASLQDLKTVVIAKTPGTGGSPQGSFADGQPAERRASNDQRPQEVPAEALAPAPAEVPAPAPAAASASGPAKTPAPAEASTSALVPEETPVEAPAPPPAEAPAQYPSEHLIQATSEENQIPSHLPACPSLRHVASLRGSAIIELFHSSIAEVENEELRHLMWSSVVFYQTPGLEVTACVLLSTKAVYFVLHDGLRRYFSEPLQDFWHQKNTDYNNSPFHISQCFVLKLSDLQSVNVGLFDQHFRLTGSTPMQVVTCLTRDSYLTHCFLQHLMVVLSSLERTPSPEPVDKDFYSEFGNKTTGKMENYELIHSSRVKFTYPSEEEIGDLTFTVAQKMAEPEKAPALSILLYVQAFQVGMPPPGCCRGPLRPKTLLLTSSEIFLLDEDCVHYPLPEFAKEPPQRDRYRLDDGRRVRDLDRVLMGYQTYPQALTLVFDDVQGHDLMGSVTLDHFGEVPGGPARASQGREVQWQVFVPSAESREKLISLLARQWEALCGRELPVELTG
Chain of Cannabinoid receptor 2 (P34972 whole entry): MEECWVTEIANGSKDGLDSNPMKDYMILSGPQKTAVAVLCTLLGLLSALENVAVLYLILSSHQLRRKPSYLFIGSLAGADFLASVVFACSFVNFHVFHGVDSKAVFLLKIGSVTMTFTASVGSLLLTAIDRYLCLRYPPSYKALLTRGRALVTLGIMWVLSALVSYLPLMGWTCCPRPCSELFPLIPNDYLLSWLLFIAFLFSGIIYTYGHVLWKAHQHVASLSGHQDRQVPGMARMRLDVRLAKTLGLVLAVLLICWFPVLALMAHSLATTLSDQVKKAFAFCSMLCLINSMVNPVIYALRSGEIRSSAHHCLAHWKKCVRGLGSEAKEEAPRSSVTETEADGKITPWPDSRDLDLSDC
Chain of Histamine H3 receptor (Q9Y5N1 whole entry): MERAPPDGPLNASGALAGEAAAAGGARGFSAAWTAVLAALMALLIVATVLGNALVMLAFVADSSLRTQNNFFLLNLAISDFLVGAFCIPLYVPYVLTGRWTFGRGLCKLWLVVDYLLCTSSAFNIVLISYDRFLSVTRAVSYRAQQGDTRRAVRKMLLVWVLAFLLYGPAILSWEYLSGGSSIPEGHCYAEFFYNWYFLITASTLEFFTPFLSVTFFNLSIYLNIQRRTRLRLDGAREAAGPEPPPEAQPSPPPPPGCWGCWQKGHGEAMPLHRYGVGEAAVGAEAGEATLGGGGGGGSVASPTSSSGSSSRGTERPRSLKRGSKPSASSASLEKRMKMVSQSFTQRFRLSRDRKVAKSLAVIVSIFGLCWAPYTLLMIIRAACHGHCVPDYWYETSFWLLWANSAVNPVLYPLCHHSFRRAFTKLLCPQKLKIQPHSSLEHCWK

For the molecule `CC(N)Cc1ccc2c(c1)OCO2` (centres undefined), the Ki in test [1] was greater than 10 µM; in test [2], greater than 10 µM; in test [3], greater than 10 µM; in [4], greater than 10 µM; in test [5], 0.229 µM; in test [6], greater than 10 µM.

For `COc1cc(CC(C)N)cc(OC)c1OC` (centres undefined), the Ki in test [7] is greater than 10 µM; in test [1] it was greater than 10 µM; in test [2], greater than 10 µM; in test [8] it was 0.536 µM; in test [3], greater than 10 µM; in test [4], greater than 10 µM. Moreover, the Ki in test [5] was 5.01 µM; in test [6], greater than 10 µM.

For the molecule `COc1cc(CCN)c(OC)cc1Br`, the Ki in test [7] is greater than 10 µM; in [1], 2.16 µM; in test [2], greater than 10 µM; in test [8], greater than 10 µM; in test [3] it was greater than 10 µM; in test [9], greater than 10 µM. Also, the Ki in test [4] was greater than 10 µM; in test [10] it was greater than 10 µM; in [5], 0.103 µM; in [11], greater than 10 µM; in test [6], greater than 10 µM.

In the case of `CC[C@H]1C[C@@H]2C[C@H]3c4[nH]c5ccc(OC)cc5c4CCN(C2)[C@@H]13`, the inhibition constant Ki is 4.36 µM in test [7], 5.84 µM in test [8] and greater than 10 µM in test [4].

For `CCc1cc(OC)c(CC(C)N)cc1OC` (centres undefined), the Ki in [7] is greater than 10 µM; in [1] it was greater than 10 µM; in test [2] it was greater than 10 µM; in test [8], 9.78 µM; in test [3], greater than 10 µM; in [4], greater than 10 µM. Further, the Ki in test [5] was 1.45 µM; in [6], greater than 10 µM.

Turning to `CN(C)CCc1c[nH]c2ccccc12` [2-(1H-indol-3-yl)-N,N-dimethylethanamine], the Ki in test [1] was 0.65 µM; in test [2], greater than 10 µM; in test [8], 5.21 µM; in test [3] it was greater than 10 µM; in [4], greater than 10 µM; in test [12] it was greater than 10 µM. In [6], this molecule registered a Ki greater than 10 µM.

In the case of `NCCc1c2c(c(Br)c3c1OCC3)OCC2` [2-(8-Bromo-2,3,6,7-tetrahydro-benzo[1,2-b;4,5-b']difuran-4-yl)-ethylamine], the Ki in test [7] is greater than 10 µM; in test [1] it was greater than 10 µM; in test [2], 8.97 µM; in [8] it was greater than 10 µM; in [3], greater than 10 µM; in test [4] it was greater than 10 µM. Besides, the figures for the Ki in test [5] and in [6] were 0.233 µM and greater than 10 µM, respectively.

Turning to `CCc1[nH]c2ccc(OC)cc2c1CCN(C)C` [2-ethyl-5-methoxy-N,N-dimethyltryptamine], the Ki in [7], in [9], in test [10] and in test [6] was greater than 10 µM in each case.

The molecule `COC(=O)[C@@H]1C[C@H](OC(C)=O)C(=O)[C@H]2[C@@]1(C)CC[C@H]1C(=O)O[C@H](c3ccoc3)C[C@]21C` [2S,4aR,6a(R,7R,9S,10aS,10bR)-9-(acetyloxy)-2-(furan-3-yl)dodecahydro-6a,10b-dimethyl-4,10-dioxo-2H-naphtho[2,1-c]pyran-7-carboxylic acid methyl ester] yielded a Ki in [3] greater than 10 µM.

`COc1ccc2[nH]cc(CCN(C)C)c2c1` [3-(2-DIMETHYLAMINOETHYL)-5-METHOXYINDOLE]: the Ki is 2.5 µM in [1]; greater than 10 µM in test [2]; greater than 10 µM in [8]; greater than 10 µM in test [3]; 0.508 µM in test [5]; greater than 10 µM in test [12].

With `CN(C)CCc1c[nH]c2cccc(O)c12` [4-hydroxy-N,N-dimethyltryptamine], the Ki is greater than 10 µM in test [7]; 0.792 µM in test [1]; greater than 10 µM in test [2]; greater than 10 µM in [8]; greater than 10 µM in [3]; greater than 10 µM in test [4]. Moreover, the Ki in test [12] and in test [6] was greater than 10 µM throughout.

With `COc1cc(OC)c(OC)cc1CC(C)N` (stereo not drawn) [(+/-)1-Methyl-2-(2,4,5-trimethoxy-phenyl)-ethylamine], the Ki in test [3], in [4], in test [5] and in test [6] was greater than 10 µM each time.

With `COc1cc(CC(C)N)c(OC)cc1C` (stereo not drawn) [(+/-)2-(2,5-Dimethoxy-4-methyl-phenyl)-1-methyl-ethylamine], the Ki in test [7], in test [1], in [2], in test [8], in test [3] and in test [4] was greater than 10 µM in each case. The Ki in test [5] was 0.921 µM; in [6] it was greater than 10 µM.

Regarding `COc1ccc2[nH]c(C)c(CCN(C)C)c2c1` [[2-(5-Methoxy-2-methyl-1H-indol-3-yl)-ethyl]-dimethyl-amine (C2H2O)], the Ki in [7], in test [9], in [10] and in test [6] was greater than 10 µM each time.

For `CCN(CC)C(=O)[C@@H]1C=C2c3cccc4[nH]cc(c34)C[C@H]2N(C)C1` [[N-methyl-3H]LSD], the Ki in test [7], in test [9], in [4] and in test [10] was greater than 10 µM each time.

As to `C[C@@H]1C[C@H](C)N1C(=O)C1C=C2c3cccc4[nH]cc(c34)C[C@H]2N(C)C1` (stereo partly drawn) [cis-2a], the Ki in test [7], in test [9], in [4] and in test [10] was greater than 10 µM throughout.

`CNC(C)Cc1ccc2c(c1)OCO2` (centres undefined) [mdma]: the Ki in test [7] is greater than 10 µM; in [1], 0.22 µM; in [3] it was greater than 10 µM; in test [4] it was greater than 10 µM; in test [10], greater than 10 µM; in [5] it was 1.35 µM. Moreover, the Ki is 1.2 µM in test [12] and greater than 10 µM in [11].

For the molecule `C[C@@H]1C[C@@H](C)N1C(=O)C1C=C2c3cccc4[nH]cc(c34)C[C@H]2N(C)C1` (some centres undefined) [rr-2b], the Ki in test [7], in test [9], in [4] and in [10] was greater than 10 µM in each case.

Take “CAS_82830-44-2::(2R)-1-(4-iodo-2,5-dimethoxyphenyl)propan-2-amine::DOI,(-)::US20250270173, Compound DOI”: the Ki in test [7] is greater than 10 µM; in test [1], greater than 10 µM; in test [2] it was greater than 10 µM; in [8] it was 8.56 µM; in [3] it was greater than 10 µM; in test [4] it was greater than 10 µM. The results for the Ki in test [5] and in test [6] were 0.601 µM and greater than 10 µM, respectively.

Source of the values: BindingDB's records for PubMed 20126400 (University of Oklahoma, 2010).
